The record followed here is US20260176289A1, “SMALL MOLECULE INHIBITORS OF KRAS PROTEINS” (Merck Sharp & Dohme LLC, priority 2022, published 2026).

The target of one assay is HRAS (Homo sapiens, UniProt P01112). Nature of the assay: SOS-catalyzed nucleotide exchange assay (Procedure A, TR-FRET), HRAS. The settings on record: read-out: HRAS GNE IC50. Format: biochemical. A digest of the protocol: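 Signal ratio (520/495 nm, excitation 340 nm) reports Bodipy-GDP retention on biotinylated RAS after SOS-catalyzed exchange with 3 mM GTP. SOS was 40 nM, except 160 nM for G12V. Room-temperature exchange lasted 60 min (90 min for G12V), following a 60 min compound preincubation.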
HRAS, sequence (P01112 with tags, fused parts or gaps): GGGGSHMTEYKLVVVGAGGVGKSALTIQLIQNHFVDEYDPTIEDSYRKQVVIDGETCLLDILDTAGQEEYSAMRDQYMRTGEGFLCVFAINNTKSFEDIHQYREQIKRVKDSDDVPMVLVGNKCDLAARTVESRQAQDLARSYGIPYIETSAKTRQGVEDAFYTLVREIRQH
For orientation: Time-resolved FRET reads energy transfer from a long-lived donor to a nearby acceptor.

The test system of a further assay is MKN-1 cells. As to the kind of experiment: Cellular phospho-ERK assay, MKN-1 cells (amplified wild-type KRAS). The settings on record: Homo sapiens, amplified wild-type KRAS, 2 hours, read-out: MKN1 pERK IC50. Format: cell-based. The gist of the method:
(§1)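 Cells were seeded overnight, then treated 2 h at 37° C with compound in a 10-point, 1:3 titration from 30 μM top final concentration. Lysates were assayed by AlphaLISA SureFire Ultra for p-ERK and total ERK. IC50 came from a 4-parameter logistic fit of the p-ERK/total ERK ratio.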

Another assay has as its system PANC08.13 cells. Nature of the assay: Cellular phospho-ERK assay, PANC08.13 cells (homozygous KRAS-G12D). Format: cell-based. The settings on record: Homo sapiens, PANC-08-13, KRAS-G12D, 2 hours, read-out: PANC-08.13 pERK IC50. A digest of the protocol:
as §1

The structures appear in SMILES notation. pIC50: −log10 of the molar value.

As to `C#Cc1c(F)ccc2cc(O)cc(-c3nccc4c5c(N6CCOC[C@@](C)(O)C6)nc(OC[C@@]67CCCN6C[C@H](F)C7)nc5n(C)c34)c12` [Ex-18, (S)-4-(8-(8-ethynyl-7-fluoro-3-hydroxynaphthalen-1-yl)-2-(((2R,7aS)-2-fluorotetrahydro-1H-pyrrolizin-7a(5H)-yl)methoxy)-9-methyl-9H-pyrido[4′,3′:4,5]pyrrolo[2,3-d]pyrimidin-4-yl)-6-methyl-1,4-oxazepan-6-ol], the results for the negative logarithm of the IC50 (pIC50) on HRAS, in the assay on MKN-1 cells and in the assay with PANC08.13 cells were 5.74, 8.12 and 8.34, respectively.

The pIC50 is the negative decadic logarithm of the IC50, by convention in mol/L.
